Counter-ions that a name gives are not always drawn.
Molecular target: T1, human orexin-2 (hOX2) receptors (Homo sapiens, UniProt O43614)
T1 construct: expressed in transfected cells
T1 sequence (O43614 1-444): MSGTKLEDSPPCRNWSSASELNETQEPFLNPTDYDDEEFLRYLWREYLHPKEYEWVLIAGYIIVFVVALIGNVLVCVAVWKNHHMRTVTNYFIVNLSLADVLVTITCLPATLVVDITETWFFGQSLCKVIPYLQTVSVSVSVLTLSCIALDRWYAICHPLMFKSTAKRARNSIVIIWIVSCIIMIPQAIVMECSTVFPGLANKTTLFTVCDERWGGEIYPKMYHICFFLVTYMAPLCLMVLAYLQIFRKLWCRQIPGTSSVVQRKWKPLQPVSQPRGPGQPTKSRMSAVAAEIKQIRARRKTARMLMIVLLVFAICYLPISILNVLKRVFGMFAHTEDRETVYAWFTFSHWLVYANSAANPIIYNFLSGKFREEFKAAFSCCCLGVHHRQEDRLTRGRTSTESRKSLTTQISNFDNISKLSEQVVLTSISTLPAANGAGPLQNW
Assay: Intracellular Ca2+ mobilization assay (FLIPR), antagonism of orexin-A
Type: cell-based
Details: CHO(dHFr-) cells stably expressing hOX2; orexin-A at EC80 as agonist; antagonist applied 25 min before; Kb=IC50/(1+[A]/EC50); read-out: Kb (μM) OX2R (human)
Procedure: Intracellular Ca^2+ Mobilization Assay
The Chinese Hamster Ovary (dHFr—) mutant cell line stably expressing human orexin-1 (hOX1) or human orexin-2 (hOX2) receptors were maintained in Dulbecco's Modified Eagle Medium (1X) with GlutaMax™ 1, 4500 mg/L D-Glucose and Sodium Pyruvate (Catalog No. 31966-021, Invitrogen, Carlsbad, Calif.), 5% dialyzed fetal calf serum (Catalog No. 26400-044), 100 μg/ml penicillin and 100 μg/ml streptomycin. The cells were seeded at 5×10^4 cells/well in the poly-D-lysine treated, 96-well, black/clear-bottomed plates (Catalog No. BD356640, BD Biosciences, Palo Alto, Calif.). 24 h later, the cells were loaded for 1 h at 37° C. with 4 μM Flou-4 acetoxymethyl ester (Catalog No. F-14202, Molecular Probes, Eugene, Oreg.) in FLIPR buffer (1×HBSS, 20 mM HEPES, 2.5 mM Probenecid). Hanks' Balanced Salt Solution (HBSS) (10×) (catalog No. 14065-049) and HEPES (1M) (catalog No. 15630-056) were purchased from Invitrogen, Carlsbad, Calif. Probenecid (250 mM) (catalog No. P8761) was from Sigma, Buchs, Switzerland. The cells were washed five times with FLIPR buffer to remove excess dye and intracellular calcium mobilization, [Ca^2+]i were measured using a Fluorometric Imaging Plate Reader (FLIPR-96, Molecular Devices, Menlo Park, Calif.) as described previously (Malherbe et al., Mol. Pharmacol., 64, 823-832, 2003). Orexin A (catalog No. 1455, Toris Cookson Ltd, Bristol, UK) was used as agonist. Orexin A (50 mM stock solution in DMSO) was diluted in FLIPR buffer +0.1% BSA. The EC50 and EC80 values of orexin-A were measured daily from standard agonist concentration-response curves in CHO(dHFr—)—OX1R and —OX2R cell lines. All compounds were dissolved in 100% DMSO. Inhibition curves were determined by addition of 11 concentrations (0.0001-10 μM) of inhibitory compounds and using EC80 value of orexin-A as agonist (a concentration which gave 80% of max agonist response, determined daily). The antagonists were applied 25 min (incubation at 37° C.) before the application of the agonist. Responses were measured as peak increase in fluorescence minus basal, normalized to the maximal stimulatory effect induced by EC80 value of orexin-A or orexin- B. Inhibition curves were fitted according to the Hill equation: y=100/(1+(x/IC50)^nH), where nH=slope factor using Excel-fit 4 software (Microsoft). Kb values were calculated according to the following equation Kb=IC50/(1+[A]/EC50) where A is the concentration of agonist added which is very close to agonist EC80 value, and IC50 and EC50 values were derived from the antagonist inhibition and orexin-A or B agonist curves, respectively.

Molecule: O=C([C@@H](O)c1ccccc1)N(CCc1ccc(C(F)(F)F)nc1)c1ccc2c(c1)[C@@H](O)CCO2 [Example 63, (S)-2-Hydroxy-N-((S)-4-hydroxy-chroman-6-yl)-2-phenyl-N-[2-(6-trifluoromethyl-pyridin-3-yl)-ethyl]-acetamide]
- Kb: 0.0243 µM

Molecule: CC(=O)O[C@H](C(=O)N(CCc1ccc(C(F)(F)F)cn1)c1ccc(C)c(C)c1)c1ccccc1 [Example 65, Acetic acid (S)-{(3,4-dimethyl-phenyl)-[2-(5-trifluoromethyl-pyridin-2-yl)-ethyl]-carbamoyl}-phenyl-methyl ester]
- Kb: 0.0475 µM

Molecule: Cc1ccc(N(CCc2ccc(Cl)cn2)C(=O)[C@@H](O)c2ccccc2)cc1C [Example 66, (S)—N-[2-(5-Chloro-pyridin-2-yl)-ethyl]-N-(3,4-dimethyl-phenyl)-2-hydroxy-2-phenyl-acetamide]
- Kb: 0.0057 µM

Molecule: Cc1csc(CCN(C(=O)[C@@H](N)c2ccccc2)c2ccc(C)c(C)c2)n1 [Example 67, (S)-2-Amino-N-(3,4-dimethyl-phenyl)-N-[2-(4-methyl-thiazol-2-yl)-ethyl]-2-phenyl-acetamide hydrochloride]
- Kb: 0.073 µM

Molecule: Cc1ccc(N(CCc2ccc(F)cn2)C(=O)[C@@H](O)c2ccccc2)cc1C [Example 68, (S)—N-(3,4-Dimethyl-phenyl)-N-[2-(5-fluoro-pyridin-2-yl)-ethyl]-2-hydroxy-2-phenyl-acetamide]
- Kb: 0.0232 µM

Molecule: Cc1cc(CCN(C(=O)[C@@H](O)c2ccccc2)c2ccc(C)c(C)c2)on1 [Example 70, (S)—N-(3,4-Dimethyl-phenyl)-2-hydroxy-N-[2-(3-methyl-isoxazol-5-yl)-ethyl]-2-phenyl-acetamide]
- Kb: 0.0863 µM

Molecule: Cc1ccc(N(CCc2ccc(C(F)(F)F)cn2)C(=O)[C@@H](O)c2ccc(F)cc2)cc1F [Example 80, (S)—N-(3-Fluoro-4-methyl-phenyl)-2-(4-fluoro-phenyl)-2-hydroxy-N-[2-(5-trifluoromethyl-pyridin-2-yl)-ethyl]-acetamide]
- Kb: 0.0289 µM

Molecule: Cc1cc(N(CCc2ccc(C(F)(F)F)cn2)C(=O)[C@@H](O)c2ccc(F)cc2)ccc1F [Example 81, (S)—N-(4-Fluoro-3-methyl-phenyl)-2-(4-fluoro-phenyl)-2-hydroxy-N-[2-(5-trifluoromethyl-pyridin-2-yl)-ethyl]-acetamide]
- Kb: 0.0197 µM

Molecule: O=C([C@@H](O)c1ccc(F)cc1)N(CCc1ccc(C(F)(F)F)cn1)c1ccc2c(c1)CCC2 [Example 86, (S)-2-(4-Fluoro-phenyl)-2-hydroxy-N-indan-5-yl-N-[2-(5-trifluoromethyl-pyridin-2-yl)-ethyl]-acetamide]
- Kb: 0.0378 µM

Molecule: O=C([C@@H](O)c1ccc(F)cc1)N(CCc1ccc(C(F)(F)F)cn1)c1ccc2c(c1)CCO2 [Example 87, (S)—N-(2,3-Dihydro-benzofuran-5-yl)-2-(4-fluoro-phenyl)-2-hydroxy-N-[2-(5-trifluoromethyl-pyridin-2-yl)-ethyl]-acetamide]
- Kb: 0.0198 µM

Molecule: COc1cc(N(CCc2ccc(C(F)(F)F)cn2)C(=O)[C@@H](O)c2ccc(F)cc2)ccc1F [Example 92, (S)—N-(4-Fluoro-3-methoxy-phenyl)-2-(4-fluoro-phenyl)-2-hydroxy-N-[2-(5-trifluoromethyl-pyridin-2-yl)-ethyl]-acetamide]
- Kb: 0.0146 µM

Molecule: Cc1n[nH]c2ccc(N(CCc3ccc(C(F)(F)F)nc3)C(=O)[C@@H](O)c3ccc(F)cc3)cc12 [Example 106, (S)-2-(4-Fluoro-phenyl)-2-hydroxy-N-(3-methyl-1H-indazol-5-yl)-N-[2-(6-trifluoromethyl-pyridin-3-yl)-ethyl]-acetamide]
- Kb: 0.0249 µM

Molecule: Cc1nn(C)c2ccc(N(CCc3ccc(C(F)(F)F)nc3)C(=O)[C@@H](O)c3ccc(F)cc3)cc12 [Example 107, (S)—N-(1,3-Dimethyl-1H-indazol-5-yl)-2-(4-fluoro-phenyl)-2-hydroxy-N-[2-(6-trifluoromethyl-pyridin-3-yl)-ethyl]-acetamide]
- Kb: 0.0046 µM

Molecule: (S)-2-Hydroxy-N-(3-methoxy-phenyl)-2-phenyl-N-[2-(6-trifluoromethyl-pyridin-3-yl)-ethyl]-acetamide [Example 58]
- Kb: 0.0167 µM
